Structures are written as SMILES.

Format in all cases: in vivo
One assay concerns Ambrosia artemisiifolia. Put plainly: LTP post-emergence greenhouse test. The note with it: Dosage 2000 g/ha.
For the next assay, the system named is Galium aparine. Put plainly: LTP post-emergence greenhouse test. The note with it: Dosage 2000 g/ha.
Another assay concerns Lolium perenne. Put plainly: LTP post-emergence greenhouse test. The note with it: Dosage 2000 g/ha.
A further assay concerns Phalaris minor. Put plainly: LTP post-emergence greenhouse test. The note with it: Dosage 2000 g/ha.
In another assay the test system is Amaranthus tuberculatus. Put plainly: LTP post-emergence greenhouse test. The note with it: Dosage 2000 g/ha. The protocol:
A basic panel of eight weed species (Table 3) sowed in 4×4×7 cm plastic pots containing a garden mix (klasmann). Each specie was sowed in a separate pot. In each pot, 10-15 seeds were sowed according to the specie viability. Timing of application determined at a 1-2 true leaf stage. The plants grew for 30 days in a controlled greenhouse (26±2° C. day, 20±2° C. night). Hood irrigation (tap water+Shefer 5:3:8 8 mM) was given at a 50% water content by weight. Two days before application, the tested plants thinned down to three plants per pot. Compounds were soluble in water (DDW), and commercial herbicide control was soluble in formulation B (Table 4). Before application, 1% (v/v) crop oil and 0.02% (v/v) surfactant (Tergitol™ 15-S-7) were added to the solution. […] Plants were evaluated at 3 time points (4, 8, 12 days after application (DAA)). At each time point, visual phenotyping was recorded using a scale of 0-6 (0: no visible effect, 6: maximum effect). […]
Post-emergence advanced wide panel experiment included 24 weed species (Table 5). […] Visual phenotyping was recorded at 4, 11, 17 and 20 DAA using a scale of 0-6 (0: no visible effect, 6: maximum effect). […] Statistical analysis for visual phenotyping determined by a median value of ≥3.5 and Fisher test (pval≤0.05). Statistical analysis for dry weight determined by % inhibition ≥50 and T test (pval≤0.05), as well as Wilcox test (pval≤0.05).

The test system of another assay is Arabidopsis thaliana. Put plainly: HTPS post-emergence application on miniature dicot model plant. The note with it: Arabidopsis thaliana, post-emergence, green area (RGB), read-out: Max Inhibition (%). The method, then:
(§1) The plates were placed in a controlled greenhouse in a random order inside a bath which allows flooding irrigation with tap water supplemented with a fertilizer. Applied compounds were dissolved into a final solution of 50% acetone, 49.9% DDW, 0.1% tween-20. A 96 well plate was used as a stock plate for preparing application solutions for 8 repeats. Each row contained different concentrations per chemical. Maximal concentration for application was 1.5 Kg/Ha and dilution factor is 2.5. Chemical application was performed one day after thinning out in a chemical hood. […] applied on first two true leaves in each well using 12 channel pipettes. Data collection: RGB (red, green, blue) data for green area per well was documented using camera. Data is collected at a few time points during the experiment: one day after thinning and before chemical application, two-, six- or nine-days post application. During the last two documentations, visual phenotyping was performed. Data analysis: Given RGB results and visual phenotype scores, a student t-test conducted to compare between treatment and control performance for continuous data (RGB) and Fisher exact test to analyze the non-continuous data (phenotypic scores). Dose-Response curves are generated for each treatment to infer ED50 and max. inhibition parameters, using treatment's log concentration range as the […] variable and normalized green area. Plate imaging performed at 11 and 18 DAA. RGB data for green area per well was documented and used to extract % inhibition. Dose-Response curves were built for each treatment to infer EC50, EC75 and EC90 parameters, using treatment's log concentration range as the independent variable and normalized green area as the dependent variable. Treatments were compared to controls performance given RGB results and using student's t-test (p-val≤0.05). Compounds 104-154 were applied in either or both pre- and post-emergence mode to either or both monocot and dicot model plants, following the methods described above. The compounds were applied as a gradient of concentrations as listed above, from which the ED50 was calculated.

A further assay deals with Lolium multiflorum. Put plainly: LTP post-emergence greenhouse test. The note with it: Dosage 2000 g/ha.
In a further assay the test system is Poa annua. Put plainly: LTP post-emergence greenhouse test. The note with it: Dosage 2000 g/ha.
For the next assay, the system named is Solanum nigrum. Put plainly: LTP post-emergence greenhouse test. The note with it: Dosage 2000 g/ha.
Assay [1] concerns monocot and eudicot weeds species. Put plainly: In-planta LTP weed panel, overall assessment. The note with it: applied post-emergence; both monocot and dicot species.
In another assay the test system is Matricaria chamomilla. Put plainly: LTP post-emergence greenhouse test. The note with it: Dosage 2000 g/ha.
Another assay relates to Amaranthus palmeri. Put plainly: LTP post-emergence greenhouse test. The note with it: Dosage 2000 g/ha.
For a further assay, the system named is Abutilon theophrasti. Put plainly: LTP post-emergence greenhouse test. The note with it: Dosage 2000 g/ha.
A further assay has as its system Echinochloa colon. Put plainly: LTP post-emergence greenhouse test. The note with it: Dosage 2000 g/ha.
The test system of the next assay is Echinochloa crus-galli. Put plainly: LTP post-emergence greenhouse test. The note with it: Dosage 2000 g/ha.
Another assay relates to Stellaria media. Put plainly: LTP post-emergence greenhouse test. The note with it: Dosage 2000 g/ha.
For a further assay, the system named is Alopecurus myosuroides. Put plainly: LTP post-emergence greenhouse test. The note with it: Dosage 2000 g/ha.
Another assay relates to Setaria viridis. Put plainly: LTP post-emergence greenhouse test. The note with it: Dosage 2000 g/ha.
The next assay concerns Conyza canadensis. Put plainly: LTP post-emergence greenhouse test. The note with it: Dosage 2000 g/ha.
The subject of a further assay is Chenopodium album. Put plainly: LTP post-emergence greenhouse test. The note with it: Dosage 2000 g/ha.
For a further assay, the system named is Eragrostis teff. Put plainly: HTPS pre-emergence application on monocot model plant. The protocol: as §1, with “area. […]” for “area.”
A further assay concerns Digitaria sanguinalis. Put plainly: LTP post-emergence greenhouse test. The note with it: Dosage 2000 g/ha.

`NC1CCCC(CCCC(=O)O)C1` (centres unmarked) [Compound 145]: in the assay with Ambrosia artemisiifolia, the “Herbicidal activity (In-planta), LTP-Post emergence, Ambrosia artemisiifolia” value is 20-40. Further, in the assay with Galium aparine, the “Herbicidal activity (In-planta), LTP-Post emergence, Galium aparine” value was 40-60. In addition, the “Herbicidal activity (In-planta), LTP-Post emergence, Lolium perenne” value in the assay with Lolium perenne is given as 40-60. Also, the “Herbicidal activity (In-planta), LTP-Post emergence, Phalaris minor” value in the assay with Phalaris minor came to 0. Moreover, the “Herbicidal activity (In-planta), LTP-Post emergence, Amaranthus tuberculatus” value in the assay with Amaranthus tuberculatus is recorded as 40-60. In addition, the Emax in the assay with Arabidopsis thaliana is 100%. The “Herbicidal activity (In-planta), LTP-Post emergence, Lolium multiflorum” value with Lolium multiflorum was 20-40. In the assay with Poa annua, the “Herbicidal activity (In-planta), LTP-Post emergence, Poa annua” value was 20-40. The “Herbicidal activity (In-planta), LTP-Post emergence, Solanum nigrum” value with Solanum nigrum is on record as 40-60. Also, in assay [1], the “activity (in words)” value is recorded as “good to moderate activity”. In the assay on Matricaria chamomilla, the “Herbicidal activity (In-planta), LTP-Post emergence, Matricaria chamomilla” value was 0. Moreover, the “Herbicidal activity (In-planta), LTP-Post emergence, Amaranthus palmeri” value in the assay with Amaranthus palmeri is recorded as 20-40. In the assay with Abutilon theophrasti, the “Herbicidal activity (In-planta), LTP-Post emergence, Abutilon theophrasti” value was 20-40. Besides, the “Herbicidal activity (In-planta), LTP-Post emergence, Echinochloa colon” value in the assay on Echinochloa colon is reported as 20-40. In the assay on Echinochloa crus-galli, the “Herbicidal activity (In-planta), LTP-Post emergence, Echinochloa crus-galli” value is recorded as 60-80. Further, in the assay on Stellaria media, the “Herbicidal activity (In-planta), LTP-Post emergence, Stellaria media” value is reported as 20-40. The “Herbicidal activity (In-planta), LTP-Post emergence, Alopecurus myosuroides” value with Alopecurus myosuroides is 60-80. For the same compound, the “Herbicidal activity (In-planta), LTP-Post emergence, Setaria viridis” value in the assay with Setaria viridis was determined as 60. Also, the “Herbicidal activity (In-planta), LTP-Post emergence, Conyza canadensis” value in the assay on Conyza canadensis is on record as 40-60. Besides, the “Herbicidal activity (In-planta), LTP-Post emergence, Chenopodium album” value with Chenopodium album is listed as 40-60. In addition, in the assay on Eragrostis teff (dose-response of normalized green area), the “ED50 (g/ha)” value turned out to be 16.8 g/ha. Further, in the assay with Eragrostis teff (green area (RGB)), the “Max Inhibition (%)” value was 100%. For the same compound, in the assay on Digitaria sanguinalis, the “Herbicidal activity (In-planta), LTP-Post emergence, Digitaria sanguinalis” value is recorded as 60-80.

Source of the values: patent US20230331685A1, “HERBICIDAL COMPOUNDS AND METHODS OF USE THEREOF” (AG Plenus Ltd, priority 2020, published 2023).
